Laboratory results from ChEMBL document CHEMBL5338758, “Design, Synthesis, and Bioevaluation of Novel MyD88 Inhibitor c17 against Acute Lung Injury Derived from the Virtual Screen” (J Med Chem, 2023).
Calls of active or inactive are those of the source. The rule behind the calls is not given here.

Key:
Mus musculus [1] = test: Anti-inflammatory activity against LPS-induced […] mouse model of […] assessed as decrease in TNF-alpha mRNA level in lung at 20 mg/kg, po pre-treated with compound for 30 mins followed by LPS stimulation and measured after 6 hrs by qRT-PCR analysis; format: functional, organism-based; details: time 6.5 hrs
[2] = Drug distribution in Sprague-Dawley rat kidney at 1 mg/kg, iv measured after 0.5 hrs by LC-MS/MS analysis; format: ADME, organism-based; details: read-out: Drug uptake
J774.A1 [3] = test: Cytotoxicity against mouse J774.A1 cells assessed as reduction in cell survival incubated for 24 hrs by MTT assay; format: toxicity, cell-based; details: j774.a1, 24 h
[4] = Drug distribution in Sprague-Dawley rat brain at 1 mg/kg, iv measured after 2 hrs by LC-MS/MS analysis; format: ADME, organism-based; details: read-out: Drug uptake
[5] = Drug distribution in Sprague-Dawley rat lung at 1 mg/kg, iv measured after 0.5 hrs by LC-MS/MS analysis; format: ADME, organism-based; details: read-out: Drug uptake
[6] = Toxicity in ICR mouse assessed as mortality at 20 to 400 mg/kg, po measured upto 21 days; format: organism-based; details: in vivo, 504 h, dose 20-400 mg/kg, time < 21 day
[7] = Drug distribution in Sprague-Dawley rat kidney at 10 mg/kg, po measured after 8 hrs by LC-MS/MS analysis; format: ADME, organism-based; details: read-out: Drug uptake
J774.A1 [8] = test: Anti-inflammatory activity in mouse J774.A1 cells assessed as inhibition of LPS-induced TNF-alpha production at 10 uM pre-stimulated with LPS for 24 hrs followed by compound addition and measured after 0.5 hrs by ELISA analysis relative to control; format: functional
[9] = Drug distribution in Sprague-Dawley rat heart at 1 mg/kg, iv measured after 2 hrs by LC-MS/MS analysis; format: ADME, organism-based; details: read-out: Drug uptake
[10] = AUC (0 to t) in Sprague-Dawley rat at 1 mg/kg, iv measured at 5 to 1440 min by LC-MS/MS analysis; format: ADME, organism-based; design: time upper 1440 min, time lower 5 min, dose 1 mg/kg, route iv; details: in vivo
[11] = Half-life in Sprague-Dawley rat at 10 mg/kg, po measured at 15 to 1440 min by LC-MS/MS analysis; format: ADME, organism-based; details: in vivo, time 15-1440 min
THP-1 = test: Anti-inflammatory activity in human THP-1 cells assessed as inhibition of LPS-stimulated IL-6 release at 1.25 to 20 uM by ELISA analysis; format: functional, cell-based; details: dose 1.25-20 µM
[12] = Drug distribution in Sprague-Dawley rat lung at 10 mg/kg, po measured after 3 hrs by LC-MS/MS analysis; format: ADME, organism-based; details: read-out: Drug uptake
[13] = Stability of compound in rat serum at 32 degreeC measured every 2 hrs for 24 hrs by HPLC analysis; format: ADME, cell-free
J774.A1 [14] = test: Inhibition of NF-kappaB pathway in LPS-induced mouse J774.A1 cells assessed as reduction in p65 nuclear reactivity preincubated with compound for 2 hrs followed by LPS-stimulation and measured after 15 mins by DAPI staining based immunofluorescence analysis; format: cell-based; details: time 135.0 min
J774.A1 [15] = test: Inhibition of NF-kappaB pathway in LPS-induced mouse J774.A1 cells assessed as decrease in p65 nuclear translocation preincubated with compound for 2 hrs followed by LPS-stimulation and measured after 15 mins by Western blot analysis; format: cell-based; details: dose 10-40 µM, time 135.0 min
Mus musculus [16] = test: Anti-inflammatory activity against LPS-induced […] mouse model of […] assessed as decrease in IL-6 level in BALF at 20 mg/kg, po pre-treated with compound for 30 mins followed by LPS stimulation and measured after 6 hrs; format: functional, organism-based; details: time 6.5 hrs
[17] = Drug distribution in Sprague-Dawley rat kidney at 1 mg/kg, iv measured after 2 hrs by LC-MS/MS analysis; format: ADME, organism-based; details: read-out: Drug uptake
[18] = Stability of compound in rat serum at 25 degreeC measured every 2 hrs for 24 hrs by HPLC analysis; format: ADME, cell-free
J774.A1 [19] = test: Anti-inflammatory activity in mouse J774.A1 cells assessed as inhibition of LPS-induced IL-6 production at 10 uM pre-stimulated with LPS for 24 hrs followed by compound addition and measured after 0.5 hrs by ELISA analysis relative to control; format: functional
[20] = Drug distribution in Sprague-Dawley rat liver at 10 mg/kg, po measured after 3 hrs by LC-MS/MS analysis; format: ADME, organism-based; details: read-out: Drug uptake
Mus musculus [21] = test: Anti-inflammatory activity against LPS-induced […] mouse model of […] assessed as alleviation of lung edema by measuring decrease in total lung protein level at 20 mg/kg, po pre-treated with compound for 30 mins followed by LPS stimulation and measured after 6 hrs; format: functional, organism-based; details: time 6.5 hrs
[22] = Drug distribution in Sprague-Dawley rat liver at 1 mg/kg, iv measured after 4 hrs by LC-MS/MS analysis; format: ADME, organism-based; details: read-out: Drug uptake
J774.A1 [23] = test: Anti-inflammatory activity in mouse J774.A1 cells assessed as inhibition of LPS-induced TNF-alpha production pre-stimulated with LPS for 24 hrs followed by compound addition and measured after 0.5 hrs by ELISA analysis; format: functional, cell-based
[24] = Drug distribution in Sprague-Dawley rat brain at 10 mg/kg, po measured after 8 hrs by LC-MS/MS analysis; format: ADME, organism-based; details: read-out: Drug uptake
[25] = target: T1, Myeloid differentiation primary response protein MyD88 (Homo sapiens, UniProt Q99836); test: Binding affinity to human MyD88 TIR domain by SPR analysis; details: dose 1.19-5.94 10^-5M
[26] = Drug distribution in Sprague-Dawley rat brain at 1 mg/kg, iv measured after 4 hrs by LC-MS/MS analysis; format: ADME, organism-based; details: read-out: Drug uptake
[27] = Drug distribution in Sprague-Dawley rat lung at 10 mg/kg, po measured after 1 hrs by LC-MS/MS analysis; format: ADME, organism-based; details: read-out: Drug uptake
[28] = Drug distribution in Sprague-Dawley rat lung at 1 mg/kg, iv measured after 2 hrs by LC-MS/MS analysis; format: ADME, organism-based; details: read-out: Drug uptake
[29] = Drug distribution in Sprague-Dawley rat spleen at 1 mg/kg, iv measured after 2 hrs by LC-MS/MS analysis; format: ADME, organism-based; details: read-out: Drug uptake
[30] = Half-life in Sprague-Dawley rat at 1 mg/kg, iv measured at 5 to 1440 min by LC-MS/MS analysis; format: ADME, organism-based; details: in vivo, time 5-1440 min
J774.A1 [31] = test: Inhibition of NF-kappaB pathway in LPS-induced mouse J774.A1 cells assessed as […] in IkappaB-alpha phosphorylation at 10 to 40 uM preincubated with compound for 2 hrs followed by LPS-stimulation and measured after 15 mins by Western blot analysis; format: cell-based; details: dose 10-40 µM, time 135.0 min
[32] = target: T1, Myeloid differentiation primary response protein MyD88; test: Binding affinity to human MyD88 TIR domain assessed as equilibrium dissociation constant by SPR analysis
[33] = Tmax in Sprague-Dawley rat at 10 mg/kg, po measured at 15 to 1440 min by LC-MS/MS analysis; format: ADME, organism-based; details: in vivo, time 15-1440 min

T1 sequence (Q99836 whole entry, the tested form may be a part): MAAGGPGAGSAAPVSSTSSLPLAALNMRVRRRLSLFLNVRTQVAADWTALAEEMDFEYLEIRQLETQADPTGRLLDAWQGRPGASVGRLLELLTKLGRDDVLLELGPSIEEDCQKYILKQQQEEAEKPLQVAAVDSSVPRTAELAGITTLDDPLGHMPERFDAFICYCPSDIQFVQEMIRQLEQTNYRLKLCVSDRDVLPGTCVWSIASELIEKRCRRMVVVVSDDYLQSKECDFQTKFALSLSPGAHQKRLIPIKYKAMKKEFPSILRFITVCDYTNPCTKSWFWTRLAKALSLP

For `COc1ccc(NS(=O)(=O)c2ccc(N3CCN(Cc4cccc([N+](=O)[O-])c4)CC3)c([N+](=O)[O-])c2)cn1`, the Activity (Mus musculus [1]) was “Active”, the concentration at 0.5 h [2] was 52.5 ng/g and the Activity (J774.A1 [3]) was “Non-Toxic”. The concentration at 2 h [4] was 0.66 ng/g, the concentration at 0.5 h [5] was 98.2 ng/g and the Activity [6] was “Non-Toxic”. It also gave a concentration at 8 h [7] of 656 ng/g, an inhibition at 10 µM (J774.A1 [8]) of 36.7% and a concentration at 2 h [9] of 118 ng/g. For the same compound, the AUCt [10] was 4795 ng·h/mL, the half-life [11] was 7 h and the inhibition (THP-1) was “Active”. The concentration at 3 h [12] was 37.1 ng/g, the Stability [13] was “Stable” and the inhibition (J774.A1 [14]) was “Active”. The inhibition (J774.A1 [15]) was “Dose-Dependent Effect”, the Activity (Mus musculus [16]) was “Active” and the concentration at 2 h [17] was 143 ng/g. The Stability [18] was “Stable”, the inhibition at 10 µM (J774.A1 [19]) was 69% and the concentration at 3 h [20] was 287 ng/g. For the same compound, the Activity (Mus musculus [21]) was “Active”, the concentration at 4 h [22] was 137 ng/g and the IC50 (J774.A1 [23]) was 8.17 µM. For the same compound, the concentration at 8 h [24] was 39.9 ng/g, the Activity [25] was “Dose-Dependent Effect” and the concentration at 4 h [26] was 7.99 ng/g. The concentration at 1 h [27] was 41.6 ng/g, the concentration at 2 h [28] was 206 ng/g and the concentration at 2 h [29] was 76.8 ng/g. The half-life [30] was 1.1 h, the inhibition (J774.A1 [31]) was “Active” and the Kd [32] was 53 µM. The Tmax [33] was 0.8 h.
